Experimental data as given in patent publication US20250228835A1, “PYRIDINYLOXYPYRIDINES AND RELATED COMPOUNDS AND THEIR USE IN TREATING MEDICAL CONDITIONS” (Rectify Pharmaceuticals, Inc., priority 2024, published 2025).

Key:
ABCC6 WT = target: T1, ABCC6 WT (Homo sapiens, UniProt O95255); test: ABCC6 WT assay: HiBit protein expression; assay type: cell-based; conditions: HEK-293 cells transiently expressing HiBit-tagged ABCC6 WT; 24 h treatment; top concentration 20 μM; read-out: ABCC6 WT EC50, Emax
T1 construct: expressed in transfected cells; host or cells: HEK-293 (transient, Lipofectamine 2000)
T1 sequence (O95255 whole entry): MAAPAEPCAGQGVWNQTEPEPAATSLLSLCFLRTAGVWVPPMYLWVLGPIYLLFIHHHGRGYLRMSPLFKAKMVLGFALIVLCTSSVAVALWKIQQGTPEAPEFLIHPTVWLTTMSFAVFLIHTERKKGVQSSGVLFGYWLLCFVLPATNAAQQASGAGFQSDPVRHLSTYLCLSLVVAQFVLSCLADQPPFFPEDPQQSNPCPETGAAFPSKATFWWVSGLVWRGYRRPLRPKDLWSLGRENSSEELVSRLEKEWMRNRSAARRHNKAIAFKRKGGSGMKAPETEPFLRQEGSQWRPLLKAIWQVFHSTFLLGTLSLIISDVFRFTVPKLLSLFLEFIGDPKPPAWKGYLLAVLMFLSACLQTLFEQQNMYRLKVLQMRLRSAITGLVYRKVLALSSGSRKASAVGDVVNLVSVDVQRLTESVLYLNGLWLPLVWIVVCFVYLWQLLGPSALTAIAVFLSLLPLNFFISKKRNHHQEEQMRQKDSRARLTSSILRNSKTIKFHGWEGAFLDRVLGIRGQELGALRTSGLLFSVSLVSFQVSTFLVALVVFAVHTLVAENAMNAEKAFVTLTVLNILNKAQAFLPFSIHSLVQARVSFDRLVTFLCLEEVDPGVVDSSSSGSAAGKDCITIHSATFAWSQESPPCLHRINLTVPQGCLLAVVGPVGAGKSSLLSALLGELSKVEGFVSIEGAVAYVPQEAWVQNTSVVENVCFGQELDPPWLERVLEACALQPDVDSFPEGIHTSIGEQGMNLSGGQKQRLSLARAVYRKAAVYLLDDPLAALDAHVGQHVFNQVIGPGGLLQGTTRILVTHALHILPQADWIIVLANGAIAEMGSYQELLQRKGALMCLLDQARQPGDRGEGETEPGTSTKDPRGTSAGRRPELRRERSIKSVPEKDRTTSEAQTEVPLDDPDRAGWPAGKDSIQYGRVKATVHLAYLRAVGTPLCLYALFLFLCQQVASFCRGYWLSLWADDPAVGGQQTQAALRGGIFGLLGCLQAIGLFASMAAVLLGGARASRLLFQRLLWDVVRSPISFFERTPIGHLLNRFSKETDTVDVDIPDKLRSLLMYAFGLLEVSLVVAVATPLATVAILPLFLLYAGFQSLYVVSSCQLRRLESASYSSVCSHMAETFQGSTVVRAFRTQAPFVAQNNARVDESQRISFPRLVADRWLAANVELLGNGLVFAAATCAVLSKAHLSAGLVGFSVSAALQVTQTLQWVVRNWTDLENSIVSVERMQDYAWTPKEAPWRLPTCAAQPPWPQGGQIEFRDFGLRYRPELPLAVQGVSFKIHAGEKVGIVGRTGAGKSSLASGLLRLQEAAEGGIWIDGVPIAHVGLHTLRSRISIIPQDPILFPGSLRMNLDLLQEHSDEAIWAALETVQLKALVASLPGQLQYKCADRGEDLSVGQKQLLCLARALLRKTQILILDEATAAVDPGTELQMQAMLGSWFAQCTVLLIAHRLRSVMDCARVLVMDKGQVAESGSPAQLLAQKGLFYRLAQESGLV
From the text: To assess activity against ABCC6, compounds were screened in an assay measuring protein expression, using cells transfected with cDNA encoding HiBit-tagged ABCC6 wild-type.
Described here is an assay for measuring the expression of the wild type of human ABCC6 (henceforth referred to as ABCC6 WT) and the use of this assay to measure the efficacy of compounds to increase the expression of ABCC6 WT. The assay was designed to characterize the efficacy and potency of compounds to increase the expression of ABCC6 WT by calculating an Emax and EC50 value. HEK-293 cells transiently expressing ABCC6 WT (HEK-293/ACC6 WT) were used for this assay and were cultured at 37° C. (5% CO2, humidified) in Dulbecco's Modified Eagle Medium (DMEM, Gibco product #11965-092) supplemented with 10% fetal bovine serum. For the assay, HEK-293 cells were transfected with […]/10 cm plate of cDNA encoding HiBit-tagged ABCC6 wild-type using Lipofectamine 2000 (Thermo Fisher, product #11668019). Twenty-four hours after transfection, the HEK-293/ACC6 WT cells were seeded in white/opaque 384-well plates (PerkinElmer, cat. No. 6007688) at 10,000 cells/well in 20 μl growth medium and allowed to settle for 4 hours at 37° C. (5% CO2, humidified). Compound serial dilutions are prepared in growth medium as ten times (10×) the final concentration and using a dilution factor of 2. After the four-hour incubation period, 2.2 μL of the 10× dilutions are transferred to the assay plate.
Dose response curves include ten doses with the top final concentration at 20 μM in 0.15% DMSO. Liquid handling is performed with an Integra mini96-tip head (INTEGRA). After addition of compound treatment, cells are incubated for 24 hours at 37° C. (5% CO2, humidified). After the 24-hour treatment, plates are allowed to equilibrate for 15 minutes at room temperature. Using Integra mini-96, 20 μl of HiBit lytic assay reagent (Promega, product #N3040), which is prepared according to manufacturer's instructions, is added to each well. The plates are rotated at room temperature for 10 minutes and luminescent signal is acquired using an EnVision Multimode Plate Reader (PerkinElmer).
Results are presented below in Table 4 for ABCC6 WT.

ABCA4 P1380L = target: T2, ABCA4 P1380L (Homo sapiens, UniProt P78363, P1380L); test: A4 correction dose-response assay: ABCA4 P1380L HiBit protein expression; assay type: cell-based; conditions: HEK-293 cells stably expressing HiBit-tagged ABCA4 P1380L; 24 h treatment; top concentration 30 μM; read-out: ABCA4 P1380L EC50, Emax
T2 construct: expressed in transfected cells
T2 sequence (P78363 whole entry P1380L): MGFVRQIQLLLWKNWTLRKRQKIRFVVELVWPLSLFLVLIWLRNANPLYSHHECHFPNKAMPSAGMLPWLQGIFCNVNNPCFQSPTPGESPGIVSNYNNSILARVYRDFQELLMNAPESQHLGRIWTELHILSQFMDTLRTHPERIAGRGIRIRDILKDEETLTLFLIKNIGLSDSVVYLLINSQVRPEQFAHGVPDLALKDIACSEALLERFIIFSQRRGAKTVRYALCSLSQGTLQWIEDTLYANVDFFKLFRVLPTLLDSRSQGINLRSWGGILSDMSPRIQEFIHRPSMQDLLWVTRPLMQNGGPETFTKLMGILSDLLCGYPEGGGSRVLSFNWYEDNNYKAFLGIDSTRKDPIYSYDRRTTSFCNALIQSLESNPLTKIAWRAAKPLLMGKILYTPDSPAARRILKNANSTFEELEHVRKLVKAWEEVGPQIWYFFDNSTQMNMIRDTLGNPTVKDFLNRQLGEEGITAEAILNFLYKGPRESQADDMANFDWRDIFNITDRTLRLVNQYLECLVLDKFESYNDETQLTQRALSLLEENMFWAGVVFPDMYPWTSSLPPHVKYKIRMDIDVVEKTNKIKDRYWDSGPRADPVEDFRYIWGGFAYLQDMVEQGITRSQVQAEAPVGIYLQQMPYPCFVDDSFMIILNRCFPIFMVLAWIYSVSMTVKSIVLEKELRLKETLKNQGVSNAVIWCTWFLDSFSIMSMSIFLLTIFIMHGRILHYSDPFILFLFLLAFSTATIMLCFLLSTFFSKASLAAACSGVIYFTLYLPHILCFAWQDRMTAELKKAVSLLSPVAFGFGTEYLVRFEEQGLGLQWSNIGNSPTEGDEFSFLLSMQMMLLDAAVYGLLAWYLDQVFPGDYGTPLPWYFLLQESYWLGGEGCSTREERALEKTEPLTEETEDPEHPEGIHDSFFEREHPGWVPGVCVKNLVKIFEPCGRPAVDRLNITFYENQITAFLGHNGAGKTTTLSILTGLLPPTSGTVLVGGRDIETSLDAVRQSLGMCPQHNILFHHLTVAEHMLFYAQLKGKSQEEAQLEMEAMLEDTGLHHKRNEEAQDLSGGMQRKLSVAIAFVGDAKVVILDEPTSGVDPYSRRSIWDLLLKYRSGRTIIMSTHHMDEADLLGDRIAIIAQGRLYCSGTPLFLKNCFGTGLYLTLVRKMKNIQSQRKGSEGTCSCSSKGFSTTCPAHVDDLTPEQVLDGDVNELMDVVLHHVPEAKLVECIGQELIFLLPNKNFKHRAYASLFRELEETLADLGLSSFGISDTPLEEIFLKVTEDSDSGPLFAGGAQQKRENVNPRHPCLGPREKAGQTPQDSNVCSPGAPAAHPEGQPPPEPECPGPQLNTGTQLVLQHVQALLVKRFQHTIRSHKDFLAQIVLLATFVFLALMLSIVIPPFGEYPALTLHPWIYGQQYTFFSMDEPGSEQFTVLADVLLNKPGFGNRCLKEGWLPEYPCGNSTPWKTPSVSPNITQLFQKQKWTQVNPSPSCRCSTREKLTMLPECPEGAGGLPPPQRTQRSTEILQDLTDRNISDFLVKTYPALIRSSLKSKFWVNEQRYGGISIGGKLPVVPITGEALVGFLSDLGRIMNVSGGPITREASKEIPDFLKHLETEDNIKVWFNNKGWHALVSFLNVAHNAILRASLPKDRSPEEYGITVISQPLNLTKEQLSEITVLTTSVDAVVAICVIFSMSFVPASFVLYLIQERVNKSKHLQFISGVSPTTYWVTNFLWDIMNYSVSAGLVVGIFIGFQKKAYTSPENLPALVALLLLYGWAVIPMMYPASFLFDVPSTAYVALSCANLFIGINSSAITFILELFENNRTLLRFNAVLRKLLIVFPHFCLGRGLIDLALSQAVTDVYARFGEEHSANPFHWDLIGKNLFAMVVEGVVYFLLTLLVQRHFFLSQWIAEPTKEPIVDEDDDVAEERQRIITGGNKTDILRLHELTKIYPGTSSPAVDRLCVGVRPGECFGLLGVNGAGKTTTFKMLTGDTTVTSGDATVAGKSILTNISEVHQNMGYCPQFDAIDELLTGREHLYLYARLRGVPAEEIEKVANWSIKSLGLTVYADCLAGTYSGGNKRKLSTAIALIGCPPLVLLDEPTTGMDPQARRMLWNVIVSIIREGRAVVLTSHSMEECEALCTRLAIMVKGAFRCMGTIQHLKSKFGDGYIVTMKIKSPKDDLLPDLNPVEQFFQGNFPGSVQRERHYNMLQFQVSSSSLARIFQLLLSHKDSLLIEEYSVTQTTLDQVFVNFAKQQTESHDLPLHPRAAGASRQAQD
Experimental: Exemplary compounds were evaluated in an A4 correction dose-response assay.
To assess activity against ABCA4 P1380L, the compounds were screened in an assay measuring protein expression, using cells transfected with cDNA encoding HiBit-tagged ABCA4 P1380L. Here we describe an assay for measuring the expression of the P1380L variant of human ABCA4 (henceforth referred to as ABCA4 P1380L) and the use of this assay to measure the efficacy of compounds to increase the expression of ABCA4 P1380L. The assay was designed to characterize the efficacy and potency of compounds to increase the expression of ABCA4 P1380L by calculating an Emax and EC50 value. […] (5% CO2, humidified). […] After the four-hour incubation period, 60 nL of DMSO solutions are transferred to the assay plate.
Dose response curves include eleven doses with the top final concentration at 30 μM in 0.3% DMSO. Liquid handling is performed with ECHO 550 Acoustic Liquid Handler (Labcyte). After addition of compound treatment, cells are incubated for 24 hours at 37° C. (5% CO2, humidified). After the 24-hour treatment, plates are allowed to equilibrate to room temperature for 10 minutes. Using Dragonfly Automated Liquid Handler (TTP LabTech), 20 μl of HiBit lytic assay reagent (Promega, product #N3040), which is prepared according to manufacturer's instructions, is added to each well. The plates are rotated at room temperature for 2 minutes and incubated for 1 hour at 25° C. before luminescent signal is acquired using an EnVision Multimode Plate Reader (PerkinElmer).

| EC50 (ABCC6 WT) [µM] | EC50 (ABCA4 P1380L) [µM] | Structure (SMILES) |
| --- | --- | --- |
| 1 to 10 | > 25 | Cc1cc(C)c(Oc2nc(-c3cncc(Cl)c3)ccc2S(=O)(=O)NC(C)(C)C)c(C)c1 [Compound I-99] |
| ≥ 25 | > 25 | Cc1cc(C(F)(F)F)nc(C2CC2)c1Oc1nc(-c2cncc(C#N)c2)ccc1S(=N)(=O)C1CC1 (stereo not drawn) [Compound I-287] |
| < 25 | > 25 | Cc1nc(C(F)(F)F)nc(C2CC2)c1Oc1nc(-c2cncc(Cl)c2)ccc1N(C)S(C)(=O)=O [Compound I-149] |
| 10 to 25 | > 25 | Cc1cc(C(F)(F)F)nc(C2CC2)c1Oc1nc(-c2cncc(C#N)c2)ccc1S(=N)(=O)c1ccccn1 (stereo not drawn) [Compound I-302] |
| 1 to 10 | > 25 | CNS(=O)(=O)c1ccc(-c2cncc(C#N)c2)nc1Oc1nc(C2CC2)sc1C [Compound I-308] |
| < 1 | < 25 | Cc1cc(C(F)(F)F)nc(C2CC2)c1Oc1nc(-c2cncc(C#N)c2)ccc1S(=O)(=O)NC1CCOCC1 [Compound I-306] |
| 1 to 10 | < 1 | Cc1cc(C(F)(F)F)nc(C2CC2)c1Oc1nc(-c2cncc(C#N)c2)ccc1S(=N)(=O)c1cccnn1 (stereo not drawn) [Compound I-296] |
| < 1 | < 1 | Cc1cc(C)c(Oc2nc(-c3ccc(C#N)nc3)ccc2NS(C)(=O)=O)c(C)n1 [Compound I-7] |
| < 1 | > 25 | Cc1cc(C(F)(F)F)nc(C2CC2)c1Oc1nc(-c2cncc(C#N)c2)ccc1N=S(C)(C)=O [Compound I-286] |
| ≥ 25 | > 25 | Cc1nc(C(F)(F)F)nc(C2CC2)c1Oc1nc(-c2cncc(C#N)c2)ccc1N(C)S(C)(=O)=O [Compound I-142] |
| 1 to 10 | 1 to 10 | Cc1cc(C)c(Oc2nc(-c3cccc(C#N)c3)ccc2S(=N)(=O)C2CC2)c(C)n1 (stereo not drawn) [Compound I-316] |
| < 1 | < 25 | Cc1cc(C(F)(F)F)nc(C2CC2)c1Oc1nc(-c2cccc(C#N)c2)ccc1S(=N)(=O)C1CC1 (stereo not drawn) [Compound I-295] |
| 1 to 10 | 1 to 10 | Cc1cc(C)[n+]([O-])c(C)c1Oc1nc(-c2cncc(C#N)c2)ccc1NS(C)(=O)=O [Compound I-311] |
| < 1 | < 1 | Cc1cc(C(F)(F)F)nc(C2CC2)c1Oc1nc(-c2cncc(C#N)c2)ccc1NS(=O)(=O)C1CC1 [Compound I-140] |
| 1 to 10 | 1 to 10 | Cc1cc(C(F)(F)F)nc(C2CC2)c1Oc1nc(-c2cncc(C#N)c2)ccc1S(=N)(=O)c1cccnc1 (stereo not drawn) [Compound I-304] |
| 1 to 10 | > 25 | Cc1cc(C)c(Oc2nc(-c3cncc(Cl)c3)ccc2S(=O)(=O)N2CCCC2)c(C)c1 [Compound I-96] |
| < 1 | 1 to 10 | Cc1nc(C(F)(F)F)nc(C2CC2)c1Oc1nc(-c2cncc(C#N)c2)ccc1S(=O)(=O)NC1CC1 [Compound I-292] |
| < 1 | < 25 | Cc1cc(C(F)(F)F)nc(C2CC2)c1Oc1nc(-c2cncc(C#N)c2)ccc1S(=O)(=O)Nc1cccnc1 [Compound I-294] |

| EC50 (ABCC6 WT) [µM] | EC50 (ABCA4 P1380L) [µM] | Structure (SMILES) |
| --- | --- | --- |
| < 1 | 1 to 10 | Cc1cc(C)c(Oc2nc(-c3cncc(Cl)c3)ccc2S(C)(=N)=O)c(C)c1 (stereo not drawn) [Compound I-103] |
| < 1 | > 25 | Cc1cc(C(F)(F)F)nc(C2CC2)c1Oc1nc(-c2cncc(C#N)c2)ccc1N(C)S(=O)(=O)C1CC1 [Compound I-139] |
| 1 to 10 | > 25 | Cc1nc(C(F)(F)F)nc(C2CC2)c1Oc1nc(-c2cncc(C#N)c2)ccc1S(=O)(=O)Nc1cnn(C)c1 [Compound I-309] |
| < 1 | < 25 | Cc1nc(N2CC(C#N)C2)nc(C)c1Oc1nc(-c2cncc(C#N)c2)ccc1NS(C)(=O)=O [Compound I-159] |
| 1 to 10 | > 25 | Cc1nc(C(F)(F)F)nc(C2CC2)c1Oc1nc(-c2cncc(C#N)c2)ccc1S(=N)(=O)C1CC1 (stereo not drawn) [Compound I-303] |
| < 1 | < 25 | Cc1nc(Oc2nc(-c3cncc(C#N)c3)ccc2NS(C)(=O)=O)c(C2CC2)s1 [Compound I-300] |
| 1 to 10 | 1 to 10 | Cc1cc(C)c(Oc2nc(-c3cncc(C#N)c3)ccc2N(C)S(=O)(=O)c2cccnc2)c(C2CC2)n1 [Compound I-136] |
| < 1 | > 25 | Cc1cc(C)c(Oc2nc(-c3cncc(Cl)c3)ccc2S(=O)(=O)NC2CC2)c(C)c1 [Compound I-98] |
| ≥ 25 | > 25 | Cc1nc(C)c(Oc2nc(-c3cncc(C#N)c3)ccc2N(C)S(C)(=O)=O)c(C2CC2)n1 [Compound I-157] |
| < 1 | < 1 | Cc1nc(C2CC2)nc(C2CC2)c1Oc1nc(-c2cncc(C#N)c2)ccc1NS(C)(=O)=O [Compound I-150] |
| 1 to 10 | > 25 | Cc1cc(C)c(Oc2nc(-c3c[nH]c(=O)c(C#N)c3)ccc2NS(C)(=O)=O)c(C)n1 [Compound I-307] |
| 1 to 10 | 1 to 10 | Cc1cc(C)c(Oc2nc(-c3cccc(Cl)c3)ccc2S(=O)(=O)NC2CCOC2)c(C)c1 (stereo not drawn) [Compound I-101] |
| < 1 | < 1 | Cc1nc(C(F)(F)F)nc(C2CC2)c1Oc1nc(-c2cncc(Cl)c2)ccc1NS(C)(=O)=O [Compound I-151] |
| ≥ 25 | 1 to 10 | Cc1cc(C2CC2)nc(C2CC2)c1Oc1nc(-c2cncc(C#N)c2)ccc1N(C)S(C)(=O)=O [Compound I-146] |
| ≥ 25 | < 25 | Cc1cc(C(F)(F)F)nc(C2CC2)c1Oc1nc(-c2cncc(C#N)c2)ccc1N(C)S(C)(=O)=O [Compound I-156] |
| < 1 | 10 to 25 | Cc1cc(C)c(Oc2nc(-c3cncc(Cl)c3)ccc2S(N)(=O)=O)c(C)c1 [Compound I-100] |
| < 1 | < 1 | CNS(=O)(=O)c1ccc(-c2cncc(Cl)c2)nc1Oc1c(C)cc(C)cc1C [Compound I-95] |
| 1 to 10 | > 25 | CNS(=O)(=O)c1ccc(-c2cncc(C#N)c2)nc1Oc1c(C)nc(C(F)(F)F)nc1C1CC1 [Compound I-315] |
